{"source": "patent US20180251847A1", "about": "“METHOD OF PREDICTING THE TUMOR RESPONSE TO DNA METHYLATION INHIBITORS AND ALTERNATIVE THERAPEUTIC REGIMEN FOR OVERCOMING RESISTANCE” (PALACKY UNIVERSITY, OLOMOUC, priority 2014, published 2018)", "key": {"R2.2 (HCT116-RDAC)": {"test_system": "R2.2 (HCT116-RDAC)", "assay": "MTT based cell survival assay, DAC resistant HCT116 clone R2.2", "parameters": "species or system human", "description": "(§1) The DAC resistant HCT116 cell lines were developed using two methods.\n(§2) The method is primarily based on reduction of yellow colored tetrazolium salt, 3-(4,5-dimethylthiazol-2-yl)-2,5-diphenyltetrazolium bromide (MTT) to insoluble purple colored formazan crystals by NAD(P)H-dependent oxidoreductase enzymes in mitochondria of the viable cell.\n(§3) Cells in 80 μL of medium were plated in each of the experimental and the control wells, followed by addition of 20 μL medium with five-fold drug concentration to experimental wells. The wells with medium alone were included alongside as blank for absorbance readings. After 72 h of drug treatment, 10 μL MTT (Sigma-Aldrich) prepared in 1×PBS (5 mg/mL) was added to all wells including blank and control, and incubated until the purple formazan crystals were visible after which 100 μL of detergent (10% SDS, pH: 5.5) was added and the plates were incubated overnight to solubilize the formazan and the cellular material.\n(§4) Cross resistance was determined as the fold increase, whereas, the sensitivity was determined as the fold decrease in the IC50 of the drugs for the resistant cell lines compared to their genetically identical drug sensitive counterpart."}, "HCT116-RDAC xenografts": {"test_system": "HCT116-RDAC xenografts", "assay": "Anti-tumor activity in xenografted mouse model, HCT116-RDAC (clone R1.4)", "type": "in vivo, SCID mice", "details": "HCT116-RDAC xenograft, DAC 2.5 mg/kg i.p., 10 doses, day 0-21", "from_the_text": "For in vivo validation of HCT116 resistance towards DAC and sensitivity of DAC resistant tumors to (+)-JQ1 treatment, we studied the anti-tumor activity of DAC and (+)-JQ1 in HCT116 parental versus a resistant cell clone R1.4 (HCT116_RDAC). Xenografts were established in 11-12 weeks-old female SCID mice, inoculated with 5×10^6 cells, s.c. on both sides of the chest. After 2 weeks, tumors were palpable (average tumor volume 20 mm^3) and mice were assigned into four groups (8 mice/group). Group I: vehicle control for DAC (10:90, DMSO: PBS) and Group II: DAC, 2.5 mg/kg by i.p. injection once a day for 14 days (5 days on, 2 days off), total 10 doses. […] Body weights of the animals were measured daily and tumor volume data were collected twice a week. […]\nFor determining the anti-tumor activity of the drugs, DAC and (+)-JQ1, tumor volume data for each group were transformed into relative tumor volumes followed by calculation of treatment to control ratio (T/C ratio) for each time point. […] Statistical significance of the data was determined by calculating bootstrap p-value, n=10000, one-sided test of H0: T/C ratio=1, H1: T/C ratio <1 (Jianrong Wu., Journal of Biopharmaceutical Statistics 2010; 20, 954-64). After day 21, statistical significance cannot be measured accurately due to decreased survival of animals in control group. […]"}, "R2.1 (HCT116-RDAC)": {"test_system": "R2.1 (HCT116-RDAC)", "assay": "MTT based cell survival assay, DAC resistant HCT116 clone R2.1", "parameters": "species or system human", "description": "as §1, §2, §3, §4"}, "R1.3 (HCT116-RDAC)": {"test_system": "R1.3 (HCT116-RDAC)", "assay": "MTT based cell survival assay, DAC resistant HCT116 clone R1.3", "parameters": "species or system human", "description": "as §1, §2, §3, §4"}, "R1.1 (HCT116-RDAC)": {"test_system": "R1.1 (HCT116-RDAC)", "assay": "MTT based cell survival assay, DAC resistant HCT116 clone R1.1", "parameters": "species or system human", "description": "as §1, §2, §3, §4"}, "R1.4 (HCT116-RDAC)": {"test_system": "R1.4 (HCT116-RDAC)", "assay": "MTT based cell survival assay, DAC resistant HCT116 clone R1.4", "parameters": "species or system human", "description": "as §1, §2, §3, §4"}, "HCT116": {"test_system": "HCT116", "assay": "MTT based cell survival assay, parental HCT116", "parameters": "species or system human", "details": "Homo sapiens", "description": "To study the mechanism of resistance towards DNA methylation inhibitor, 2′-deoxy-5-azacytidine, we used the human colorectal cancer cell line (HCT116), human promyelocytic leukemia cells (HL-60), and human breast adenocarcinoma cell line (MCF-7) obtained from American Type Culture Collection (Manassas, Va.). The cell lines were cultured in complete growth media (Sigma-Aldrich, St. Louis, Mo.), supplemented with fetal bovine serum (FBS, PAN-Biotech GmbH, Aidenbach, Germany), 100 U/mL penicillin (Biotika, Slovenská L'upča, Slovak Republic) and 50 μg/mL streptomycin (Sigma-Aldrich), and the cultures were maintained at 37° C. and 5% CO2, in a humidified incubator. The cell line, HCT116 was grown in McCoy's 5 A medium supplemented with 10% FBS and 3 mM L-glutamine (Sigma-Aldrich), HL-60 was grown in Iscove's Modified Dulbecco's Medium with 20% FBS, and MCF-7 was grown in RPMI-1640 medium with 10% FBS.\nas §2, with “cell. The intensity of the purple color produced on solubilization of the formazan crystals is directly proportional to the number of viable cells (Meerloo J. V. et al., Methods in Molecular Biology 2011; 731, 237-45).” for “cell.”\nas §3, with “To determine the IC50 of the epigenetic drugs (Tocris Bioscience, Bristol, United Kingdom), four independent experiments were performed using triplicate wells of 96 well plates. Cells” for “Cells”, “[…],” for “After 72 h of drug treatment,”\nas §4"}, "[1]": {"details": "Homo sapiens, HCT-116, 72 h, read-out: Mean IC50"}}, "note": "Where two headings read alike, the source gives them in different places.", "data": [{"smiles": "Nc1ncn([C@H]2C[C@H](O)[C@@H](CO)O2)c(=O)n1", "note": "[DAC, 2′-deoxy-5-azacytidine]", "values": [{"measurement": "IC50", "setting": "R2.2 (HCT116-RDAC); [1]", "value": "> 100", "unit": "µM"}, {"measurement": "fold change (resistance index)", "setting": "R2.2 (HCT116-RDAC); IC50 R2.2 / IC50 HCT116", "value": "(>357) fold"}, {"measurement": "fold effect (anti-tumor activity, aAUC of T/C ratio)", "setting": "HCT116-RDAC xenografts", "value": 1.3}, {"measurement": "IC50", "setting": "R2.1 (HCT116-RDAC); Homo sapiens, HCT-116, R2.1, MTT, 72 h drug treatment", "value": "> 100", "unit": "µM"}, {"measurement": "fold change (resistance index)", "setting": "R2.1 (HCT116-RDAC); IC50 R2.1 / IC50 HCT116", "value": "(>357) fold"}, {"measurement": "IC50", "setting": "R1.3 (HCT116-RDAC); [1]", "value": "> 100", "unit": "µM"}, {"measurement": "fold change (resistance index)", "setting": "R1.3 (HCT116-RDAC); IC50 R1.3 / IC50 HCT116", "value": "(>357) fold"}, {"measurement": "IC50", "setting": "R1.1 (HCT116-RDAC); [1]", "value": "> 100", "unit": "µM"}, {"measurement": "fold change (resistance index)", "setting": "R1.1 (HCT116-RDAC); IC50 R1.1 / IC50 HCT116", "value": "(>357) fold"}, {"measurement": "IC50", "setting": "R1.4 (HCT116-RDAC); [1]", "value": "> 100", "unit": "µM"}, {"measurement": "fold change (resistance index)", "setting": "R1.4 (HCT116-RDAC); IC50 R1.4 / IC50 HCT116", "value": "(>357) fold"}, {"measurement": "IC50", "setting": "HCT116; HCT-116, 72 h, read-out: Mean IC50", "value": 280, "unit": "nM"}, {"measurement": "IC50", "setting": "HCT116; HCT-116, 120 h, read-out: IC50 concentration of the drug", "value": 280, "unit": "nM"}]}]}
